{"source": "paper PMC4442108", "about": "“Preclinical Validation of the Heparin-Reactive Peptide p5+14 as a Molecular Imaging Agent for Visceral Amyloidosis” (Molecules, 2015)", "key": {"[1]": {"target": "T1, AA amyloid (Mus musculus, UniProt P05367)", "T1 construct": "organs known to develop AA amyloid in this mouse model; from tissue; host or cells: live H2/IL-6 transgenic Balb/c mice; liver, spleen, heart, kidney, pancreas", "T1 sequence (P05367 20-95 limits assumed)": "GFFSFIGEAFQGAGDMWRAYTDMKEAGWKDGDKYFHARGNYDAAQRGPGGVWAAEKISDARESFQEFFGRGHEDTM", "test": "Biodistribution, SPECT/CT and micro-autoradiography of 125I-p5+14 in mice with systemic AA amyloidosis", "assay_type": "in vivo, mouse (H2/IL-6 transgenic)", "method": "Systemic visceral AA amyloidosis was induced in H2-Ld-huIL-6 Tg Balb/c transgenic mice that constitutively express the human interleukin-6 transgene by iv injection of 10 µg of purified, splenic AA amyloid (amyloid enhancing factor; AEF) in 100 µL of sterile phosphate-buffered saline (PBS). Peptide was evaluated in mice at 4–6 wk post AEF injection when amyloid load was significant.\n(§1) For serial SPECT/CT imaging in cohorts (n = 3) of AA and healthy wild type (WT) mice, peptide p5+14 (100 µg) was radioiodinated with ~4 mCi of ^125I (Perkin Elmer, Waltham, MA, USA), using 20 µg chloramine T as the oxidizing agent. After quenching the reaction with 20 µg sodium metabisulfite, the radiolabeled peptide was diluted into 0.1% sterile gelatin in PBS and free radioiodide removed by size exclusion chromatography on a 5 mL PD10 (GE Healthcare) solid phase equilibrated with 0.1% gelatin/PBS. Fractions 0f 200 µL were collected and those containing the maximal radioactivity (indicative of ^125I-p5+14) were pooled, and the product’s radiochemical purity was established by SDS polyacrylamide gel electrophoresis (PAGE) analyzed by phosphor imaging (Cyclone Storage Phosphor System, Perkin Elmer, Shelton, CT, USA).\nImaging was performed as described. Briefly, WT or AA amyloid mice (n = 3) were injected with ~3 µg of ^125I-p5+14, 125 µCi (specific activity ~40 µCi/µg) in the lateral tail vein. After the appropriate uptake time (1, 4, 24, and 48 h), mice were euthanized by isoflurane inhalation overdose. […]\n(§2) Samples of liver, spleen, pancreas, kidneys, small and large intestines, stomach and heart were harvested post mortem from every mouse undergoing imaging with ^125I-p5+14 [45]. A sample of each was placed into a tared, plastic vial, weighed and the ^125I radioactivity measured using an automated Wizard 3 gamma counter (1480 Wallac Gamma Counter, Perkin Elmer). The biodistribution data were expressed as % injected dose/g tissue (%ID/g). […]"}, "[2]": {"test": "Biodistribution, SPECT/CT and micro-autoradiography of 125I-p5+14 in healthy wild type mice", "assay_type": "in vivo, mouse (WT)", "method": "as §1\nImaging was performed as described. Briefly, WT or AA amyloid mice (n = 3) were injected with ~3 µg of ^125I-p5+14, 125 µCi (specific activity ~40 µCi/µg) in the lateral tail vein. After the appropriate uptake time (1, 4, 24, and 48 h), mice were euthanized by isoflurane inhalation overdose. SPECT images were acquired using an Inveon trimodality imaging platform (Siemens Preclinical Solution, Knoxville, TN, USA; [64]) running Inveon Acquisition Workplace software (ver. 2.0). Low energy (^125I; 25–45 keV) gamma photons were acquired at each of 60, 16-sec projections with 90 mm of bed travel. A 1 mm-diameter, 5-pinhole (Mouse Whole Body) collimator was used at 30 mm from the center of the field of view. […]\nas §2"}, "[3]": {"test_system": "human AL amyloid extracts", "test": "Peptide ex vivo amyloid binding assay (pull-down), AL extracts", "conditions": "for % Bound (mean ± SD): 1 h incubation, PBST, RT, N = 2", "method": "Human amyloid tissue extracts were prepared using the water flotation method as described by Pras et al. without modification. Purified amyloid material isolated in the water wash was collected and lyophilized before use.\n(§3) Twenty-five microliters of 1 mg/mL AL extract, or synthetic rVλ6Wil variable domain fibrils were centrifuged in a 0.5 mL microfuge tube at 21,000× g for 5 min. The supernatant was discarded and pellet resuspended in 200 µL of PBS with 0.05% Tween-20 (PBST). Ten microliters of a 1:100 dilution of ^125I-p5+14 (~100,000 counts per minute (CPM); ~5 ng peptide) stock was added to the suspension. The mixture was rotated at RT for 1 h. Samples were then centrifuged twice at 15,000× g for 10 min. Supernatants and pellets were separated after each step and the radioactivity in each was measured using a Cobra II gamma counter (Perkin Elmer) with a 1 min acquisition. The percentage of ^125I-p5+14 bound to pellet was determined as follows: % Bound = Pellet CPM/(Pellet CPM + Supernatant CPM) × 100"}, "[4]": {"target": "T2, human ATTR amyloid extract (Homo sapiens, UniProt P02766)", "T2 construct": "as well as one cardiac ATTR extract, were analyzed in this assay; from tissue; host or cells: human heart, water flotation extract", "test": "Peptide ex vivo amyloid binding assay (pull-down), ATTR extract", "conditions": "ATTR heart extract; ~5 ng 125I-p5+14, 25 µL of 1 mg/mL extract, PBST, 1 h RT, pellet vs supernatant CPM; N = 2"}, "[5]": {"test_system": "synthetic rVλ6Wil fibrils", "assay_type": "binding, human", "conditions": "HSPG-free synthetic rVλ6Wil fibrils in suspension; PBST; 1 h RT; 125I-p5+14 ~5 ng", "method": "as §3"}, "[6]": {"test_system": "healthy tissue homogenates", "test": "Peptide ex vivo binding assay, non-specific binding", "conditions": "data not shown"}}, "note": "Where no end group is shown, it is not given here. [ ]: non-standard residue; d: D form. Tyr(3-I) = N[C@@H](Cc1ccc(O)c(I)c1)C(=O)O"}
{"substance": "GGG[Tyr(3-I)]SKAQKAQAKQAKQAQKAQKAQAKQAKQAQKAQKAQAKQAKQ [125I-p5+14]", "values": [{"measurement": "micro-autoradiographic distribution of radiolabeled peptide in tissues", "setting": "[1]; AA mice, 1 h pi, 6 µm tissue sections compared with Congo red", "value": "co-localized with amyloid in diseased tissues"}, {"measurement": "125I-p5+14 retention in the spleen", "setting": "[1]; mice deemed amyloid-free by Congo red histochemical staining (cohort n = 34)", "value": "> 3", "unit": "%ID/g"}, {"measurement": "whole-body retention half-life", "setting": "[1]; mice with AA amyloidosis, iv ~3 µg 125I-p5+14, gamma counting up to 48 h pi, n = 3 per time point", "value": "> 48", "unit": "h"}, {"measurement": "micro-autoradiographic distribution of radiolabeled peptide in tissues", "setting": "[2]; WT mice, 1 h pi, 6 µm tissue sections", "value": "not retained by any cells or macroscopic structures in healthy tissues"}, {"measurement": "whole-body retention half-life", "setting": "[2]; WT mice, iv ~3 µg 125I-p5+14, gamma counting up to 48 h pi, exponential fit, n = 3 per time point", "value": "~ 1.5 h"}, {"measurement": "tissue uptake at 2 h", "setting": "[2]; mouse, in vivo, iv, 3 ug, healthy mice, 2 h pi, read-out: retention of radioactivity in any organ", "value": "< 0.6", "unit": "%ID/g"}, {"measurement": "median % bound amongst the test samples", "setting": "[3]; across the human AL and ATTR amyloid extracts of Table 3", "value": 92, "unit": "%"}, {"measurement": "% Bound (mean ± SD)", "setting": "[3]; κ1 AL08 liver extract", "value": "96.35 ± 0.47", "unit": "%"}, {"measurement": "% Bound (mean ± SD)", "setting": "[3]; κ4 AL01 spleen extract", "value": "97.00 ± 0.11", "unit": "%"}, {"measurement": "% Bound (mean ± SD)", "setting": "[3]; λ1 AL03 liver extract", "value": "91.16 ± 0.87", "unit": "%"}, {"measurement": "% Bound (mean ± SD)", "setting": "[3]; λ1 AL07 liver extract", "value": "51.81 ± 0.25", "unit": "%"}, {"measurement": "% Bound (mean ± SD)", "setting": "[3]; λ2 AL02 liver extract", "value": "92.95 ± 0.31", "unit": "%"}, {"measurement": "% Bound (mean ± SD)", "setting": "[3]; λ2 AL02 spleen extract", "value": "96.76 ± 3.65", "unit": "%"}, {"measurement": "% Bound (mean ± SD)", "setting": "[3]; λ2 AL06 liver extract", "value": "89.66 ± 0.91", "unit": "%"}, {"measurement": "% Bound (mean ± SD)", "setting": "[3]; λ2 AL06 spleen extract", "value": "97.11 ± 0.05", "unit": "%"}, {"measurement": "% Bound (mean ± SD)", "setting": "[3]; λ2 AL09 liver extract", "value": "84.99 ± 0.14", "unit": "%"}, {"measurement": "% Bound (mean ± SD)", "setting": "[3]; λ3 AL04 liver extract", "value": "88.44 ± 0.25", "unit": "%"}, {"measurement": "% Bound (mean ± SD)", "setting": "[3]; λ3 AL04 spleen extract", "value": "92.29 ± 0.30", "unit": "%"}, {"measurement": "% Bound (mean ± SD)", "setting": "[3]; λ4 AL05 spleen extract", "value": "95.44 ± 0.03", "unit": "%"}, {"measurement": "% Bound (mean ± SD)", "setting": "[4]", "value": "79.93 ± 1.23", "unit": "%"}, {"measurement": "% bound", "setting": "[5]", "value": 95.7, "unit": "%"}, {"measurement": "non-specific binding", "setting": "[6]", "value": "~ 10%"}]}
